From patent publication US20180353457A1, “ABIETANE DITERPENOID 7-ACETOXYROYLEANONES FOR USE IN CANCER TREATMENT” (University of South Carolina, priority 2017, published 2018)

How the values were obtained:
[1] = test system: OVCAR-3 (ovarian cancer) cells; assay: NCI-60 five dose screen, OVCAR-3; conditions: Homo sapiens, OVCAR-3, read-out: LC50
[2] = test system: HCC-2996 (colon cancer) cells; assay: NCI-60 five dose screen, HCC-2996; conditions: read-out: LC50
[3] = test system: RXF 393 (renal cancer) cells; assay: NCI-60 five dose screen, RXF 393; conditions: Homo sapiens, RXF 393, read-out: LC50
[4] = test system: A498 (renal cancer) cells; assay: NCI-60 five dose screen, A498; conditions: Homo sapiens, A498, read-out: LC50
[5] = test system: MDA-MB-468 (breast cancer) cells; assay: NCI-60 five dose screen, MDA-MB-468; conditions: Homo sapiens, MDA-MB-468, read-out: LC50
[6] = test system: DU-145 (prostate cancer) cells; assay: NCI-60 five dose screen, DU-145; conditions: Homo sapiens, DU-145, read-out: LC50
[7] = test system: MDA-MB-435 (melanoma) cells; assay: NCI-60 five dose screen, MDA-MB-435; conditions: Homo sapiens, MDA-MB-435, read-out: LC50
[8] = test system: SK-MEL-5 (melanoma) cells; assay: NCI-60 five dose screen, SK-MEL-5; conditions: Homo sapiens, SK-MEL-5, read-out: LC50
[9] = test system: NCI-H522 (non-small cell lung cancer) cells; assay: NCI-60 five dose screen, NCI-H522; conditions: Homo sapiens, NCI-H522, read-out: LC50
[10] = test system: COLO 205 (colon cancer) cells; assay: NCI-60 five dose screen, COLO 205; conditions: Homo sapiens, COLO 205, read-out: LC50
[11] = test system: HOP-92 (non-small cell lung cancer) cells; assay: NCI-60 five dose screen, HOP-92; conditions: Homo sapiens, HOP-92, read-out: LC50
[12] = test system: SF-295 (CNS cancer) cells; assay: NCI-60 five dose screen, SF-295; conditions: Homo sapiens, SF-295, read-out: LC50

Question: For COc1cccc2c1C(=O)c1c(O)c3c(c(O)c1C2=O)C[C@@](O)(C(=O)CO)C[C@@H]3O[C@H]1C[C@H](N)[C@H](O)[C@H](C)O1 [Doxorubicin, doxorubicin, reference compound], which CC50 [1] is on record?
Answer: Its CC50 is 23.4 µM.

Question: What about the CC50 [2] of the same compound?
Answer: Its CC50 is 6.76 µM.

Question: And the CC50 [3]?
Answer: The CC50 was 4.79 µM.

Question: What about the CC50 [4] of the same compound?
Answer: The CC50 was 3.72 µM.

Question: What about the CC50 [5] of the same compound?
Answer: The CC50 was 2.45 µM.

Question: And the CC50 [6]?
Answer: The CC50 was 23.4 µM.

Question: What about the CC50 [7] of the same compound?
Answer: Its CC50 is 2.88 µM.

Question: And the CC50 [8]?
Answer: Its CC50 is 1.62 µM.

Question: What about the CC50 [9] of the same compound?
Answer: The CC50 was 9.33 µM.

Question: What about the CC50 [10] of the same compound?
Answer: Its CC50 is 4.9 µM.

Question: What about the CC50 [11] of the same compound?
Answer: The CC50 was 20.9 µM.

Question: What about the CC50 [12] of the same compound?
Answer: Its CC50 is 19.1 µM.
